Reference: ChEMBL document CHEMBL1201862, “PubChem BioAssay data set” (2004)
Activity calls are given as the source filed them.

What was measured:
Format in all cases: functional
[1] = target: Casein kinase I isoform delta (Homo sapiens, UniProt P48730);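 further: measured as one member (CSNK1D) of a kinome panel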
[2] = target: Serine/threonine-protein kinase D2 (Homo sapiens, UniProt Q9BZL6);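 further: measured against PRKD2 as one member of a kinome-wide kinase profiling panel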
[3] = target: Maternal embryonic leucine zipper kinase (Homo sapiens, UniProt Q14680)
[4] = target: Tyrosine-protein kinase Lyn (Homo sapiens, UniProt P07948);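 further: lyn as one member of a kinase panel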
[5] = target: Tyrosine-protein kinase receptor TYRO3 (Homo sapiens, UniProt Q06418);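 further: TYRO3 value obtained as one member of a kinome-wide profiling panel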
[6] = target: RAC-alpha serine/threonine-protein kinase (Homo sapiens, UniProt P31749);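 further: AKT1 affinity measured as one member of a kinome-wide kinase profiling panel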
[7] = target: cGMP-dependent protein kinase 1 (Homo sapiens, UniProt Q13976);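 further: value from a kinome panel screen with PRKG1 as the panel member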
[8] = target: Interleukin-1 receptor-associated kinase 4 (Homo sapiens, UniProt Q9NWZ3)
[9] = target: Dual specificity tyrosine-phosphorylation-regulated kinase 1A (Homo sapiens, UniProt Q13627);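 further: measured against DYRK1A as one member of a broad kinome profiling panel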
[10] = target: Tyrosine-protein kinase FRK (Homo sapiens, UniProt P42685);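 further: FRK tested as one member of a kinome panel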
[11] = target: Megakaryocyte-associated tyrosine-protein kinase (Homo sapiens, UniProt P42679);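 further: affinity measured as one member of a kinase panel (Navigating the Kinome) against MATK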
[12] = target: Mitogen-activated protein kinase 8 (Homo sapiens, UniProt P45983);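 further: value comes from one member of a kinome-wide kinase profiling panel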
[13] = target: Dual specificity protein kinase CLK4 (Homo sapiens, UniProt Q9HAZ1)
SRSF protein kinase 1 = SRSF protein kinase 1 (Homo sapiens, UniProt Q96SB4);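 further: measured as one member of a kinome-wide kinase profiling panel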
[14] = target: Serine/threonine-protein kinase Chk1 (Homo sapiens, UniProt O14757);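 further: measured as one member of a kinome-wide kinase profiling panel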
[15] = target: Protein kinase C delta type (Homo sapiens, UniProt Q05655)
[16] = target: ALK tyrosine kinase receptor (Homo sapiens, UniProt Q9UM73);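 further: ALK tested as one member of a kinase panel screen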
[17] = target: Tyrosine-protein kinase SYK (Homo sapiens, UniProt P43405)
[18] = target: Cyclin-dependent kinase 1 (Homo sapiens, UniProt P06493);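 further: Kinome-wide panel profiling, with the target listed as panel member CDC2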
[19] = target: Serine/threonine-protein kinase N2 (Homo sapiens, UniProt Q16513)
Aurora kinase B = Aurora kinase B (Homo sapiens, UniProt Q96GD4)
[20] = target: Serine/threonine-protein kinase DCLK1 (Homo sapiens, UniProt O15075);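 further: affinity for DCLK1 (listed as DCAMKL1) measured as one member of a kinome-wide kinase profiling panel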
[21] = target: Mitogen-activated protein kinase 1 (Homo sapiens, UniProt P28482)
[22] = target: Mitogen-activated protein kinase kinase kinase kinase 2 (Homo sapiens, UniProt Q12851);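 further: measured as one member of a kinome-wide kinase panel, with MAP4K2 as the panel entry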
[23] = target: Vascular endothelial growth factor receptor 3 (Homo sapiens, UniProt P35916);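 further: value from a kinome-wide profiling panel, with FLT4 as the panel member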
[24] = target: Serine/threonine-protein kinase MRCK alpha (Homo sapiens, UniProt Q5VT25)
Ephrin type-A receptor 2 = Ephrin type-A receptor 2 (Homo sapiens, UniProt P29317);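 further: EPHA2 tested as one member of a kinome-wide kinase panel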
[25] = target: RAC-gamma serine/threonine-protein kinase (Homo sapiens, UniProt Q9Y243)
[26] = target: Rho-associated protein kinase 1 (Homo sapiens, UniProt Q13464);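 further: measured within a broad kinome-wide panel profiling many kinases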
[27] = target: MAP kinase-interacting serine/threonine-protein kinase 2 (Homo sapiens, UniProt Q9HBH9)
[28] = target: Vascular endothelial growth factor receptor 2 (Homo sapiens, UniProt P35968)
[29] = target: Tyrosine-protein kinase Fer (Homo sapiens, UniProt P16591);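 further: FER tested as one member of a kinome panel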
[30] = target: Mitogen-activated protein kinase 12 (Homo sapiens, UniProt P53778);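 further: measured as one member of a kinome-wide kinase profiling panel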
Vero = Vero cell cytotoxicity, cytotoxicity control for flavivirus capping enzyme inhibitors (AID 588742); details: Chlorocebus sabaeus
[31] = target: T1, Replicative DNA helicase DnaB (Mycobacterium tuberculosis, UniProt P9WMR3); test: DnaB intein splicing inhibitors, dose response, biochemical, cell-free fluorescence (AID 449749)
T1 sequence (P9WMR3 whole entry): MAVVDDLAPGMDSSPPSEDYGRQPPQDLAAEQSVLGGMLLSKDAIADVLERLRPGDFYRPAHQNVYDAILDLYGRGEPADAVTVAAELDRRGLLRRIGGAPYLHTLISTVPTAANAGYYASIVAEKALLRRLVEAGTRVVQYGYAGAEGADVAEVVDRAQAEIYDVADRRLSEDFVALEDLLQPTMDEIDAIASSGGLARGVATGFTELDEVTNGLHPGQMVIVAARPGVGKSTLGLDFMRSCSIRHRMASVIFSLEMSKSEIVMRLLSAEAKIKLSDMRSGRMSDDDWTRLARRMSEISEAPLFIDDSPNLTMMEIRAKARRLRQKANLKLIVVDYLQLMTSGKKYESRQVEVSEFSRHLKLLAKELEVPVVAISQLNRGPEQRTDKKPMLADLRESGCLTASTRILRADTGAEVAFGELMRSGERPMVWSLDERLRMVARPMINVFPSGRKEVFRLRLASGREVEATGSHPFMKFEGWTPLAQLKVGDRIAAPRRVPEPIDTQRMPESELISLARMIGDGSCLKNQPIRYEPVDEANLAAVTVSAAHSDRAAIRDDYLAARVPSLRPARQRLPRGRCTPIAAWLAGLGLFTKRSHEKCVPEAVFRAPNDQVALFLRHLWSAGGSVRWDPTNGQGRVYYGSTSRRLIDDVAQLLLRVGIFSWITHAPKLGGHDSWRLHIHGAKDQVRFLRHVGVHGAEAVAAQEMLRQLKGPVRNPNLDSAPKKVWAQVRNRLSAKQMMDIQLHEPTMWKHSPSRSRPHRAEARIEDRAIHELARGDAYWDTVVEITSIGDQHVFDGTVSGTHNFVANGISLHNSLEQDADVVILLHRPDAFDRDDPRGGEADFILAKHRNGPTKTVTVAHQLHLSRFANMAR

Sequence of Rho-associated protein kinase 1 (Q13464 whole entry): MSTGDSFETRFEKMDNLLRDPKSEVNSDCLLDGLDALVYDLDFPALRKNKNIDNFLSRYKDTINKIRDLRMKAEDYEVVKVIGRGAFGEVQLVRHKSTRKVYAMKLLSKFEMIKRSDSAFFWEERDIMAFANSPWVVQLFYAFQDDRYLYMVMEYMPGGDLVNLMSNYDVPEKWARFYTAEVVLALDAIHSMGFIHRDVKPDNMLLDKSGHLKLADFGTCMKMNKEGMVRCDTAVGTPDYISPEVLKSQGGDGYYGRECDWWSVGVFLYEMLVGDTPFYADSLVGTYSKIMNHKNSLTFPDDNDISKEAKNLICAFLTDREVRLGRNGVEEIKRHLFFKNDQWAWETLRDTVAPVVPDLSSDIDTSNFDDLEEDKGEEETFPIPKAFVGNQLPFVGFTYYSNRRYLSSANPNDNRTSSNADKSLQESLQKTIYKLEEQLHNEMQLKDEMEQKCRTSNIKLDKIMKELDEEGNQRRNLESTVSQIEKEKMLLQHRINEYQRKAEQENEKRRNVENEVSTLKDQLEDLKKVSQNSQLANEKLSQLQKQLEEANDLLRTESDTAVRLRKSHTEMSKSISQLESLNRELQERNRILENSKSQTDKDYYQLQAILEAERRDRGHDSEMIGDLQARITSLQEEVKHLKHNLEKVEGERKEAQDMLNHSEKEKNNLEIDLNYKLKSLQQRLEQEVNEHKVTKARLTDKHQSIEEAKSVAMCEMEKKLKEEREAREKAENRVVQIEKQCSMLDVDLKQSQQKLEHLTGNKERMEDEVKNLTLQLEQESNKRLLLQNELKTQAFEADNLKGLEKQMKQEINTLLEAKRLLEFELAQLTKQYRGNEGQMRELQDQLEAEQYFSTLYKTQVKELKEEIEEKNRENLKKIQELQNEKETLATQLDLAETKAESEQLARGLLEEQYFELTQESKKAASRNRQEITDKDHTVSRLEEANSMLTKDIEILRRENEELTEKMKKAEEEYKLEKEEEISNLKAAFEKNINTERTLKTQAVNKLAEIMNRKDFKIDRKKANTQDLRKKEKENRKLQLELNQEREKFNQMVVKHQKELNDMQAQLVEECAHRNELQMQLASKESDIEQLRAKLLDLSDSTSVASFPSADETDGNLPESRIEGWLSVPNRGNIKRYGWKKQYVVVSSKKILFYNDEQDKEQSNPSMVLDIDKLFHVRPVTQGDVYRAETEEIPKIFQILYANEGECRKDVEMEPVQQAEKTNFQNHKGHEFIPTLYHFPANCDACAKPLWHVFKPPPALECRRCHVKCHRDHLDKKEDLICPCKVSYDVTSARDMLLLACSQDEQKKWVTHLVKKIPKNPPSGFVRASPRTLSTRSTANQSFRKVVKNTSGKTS
Sequence of Mitogen-activated protein kinase kinase kinase kinase 2 (Q12851 whole entry): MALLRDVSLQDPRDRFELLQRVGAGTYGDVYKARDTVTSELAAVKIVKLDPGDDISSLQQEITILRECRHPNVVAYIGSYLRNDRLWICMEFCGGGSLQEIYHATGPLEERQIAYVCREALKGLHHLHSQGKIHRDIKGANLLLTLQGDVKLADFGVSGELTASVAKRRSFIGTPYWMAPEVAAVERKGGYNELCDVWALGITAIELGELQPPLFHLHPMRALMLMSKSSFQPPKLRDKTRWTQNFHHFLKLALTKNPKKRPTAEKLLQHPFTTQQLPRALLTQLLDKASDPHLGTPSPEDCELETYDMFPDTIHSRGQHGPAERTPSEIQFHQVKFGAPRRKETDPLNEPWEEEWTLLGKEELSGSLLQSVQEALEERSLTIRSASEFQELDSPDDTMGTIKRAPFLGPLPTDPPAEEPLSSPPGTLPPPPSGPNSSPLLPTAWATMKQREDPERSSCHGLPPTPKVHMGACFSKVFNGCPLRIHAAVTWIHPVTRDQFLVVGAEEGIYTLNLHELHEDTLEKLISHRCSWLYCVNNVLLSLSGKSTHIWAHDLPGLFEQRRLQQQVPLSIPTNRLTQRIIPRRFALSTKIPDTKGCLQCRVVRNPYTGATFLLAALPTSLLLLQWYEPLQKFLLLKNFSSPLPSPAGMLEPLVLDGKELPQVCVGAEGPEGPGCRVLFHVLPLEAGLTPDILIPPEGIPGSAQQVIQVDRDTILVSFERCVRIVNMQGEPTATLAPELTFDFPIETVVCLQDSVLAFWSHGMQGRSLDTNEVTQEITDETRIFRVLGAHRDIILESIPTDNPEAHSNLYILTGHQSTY
Sequence of Maternal embryonic leucine zipper kinase (Q14680 whole entry): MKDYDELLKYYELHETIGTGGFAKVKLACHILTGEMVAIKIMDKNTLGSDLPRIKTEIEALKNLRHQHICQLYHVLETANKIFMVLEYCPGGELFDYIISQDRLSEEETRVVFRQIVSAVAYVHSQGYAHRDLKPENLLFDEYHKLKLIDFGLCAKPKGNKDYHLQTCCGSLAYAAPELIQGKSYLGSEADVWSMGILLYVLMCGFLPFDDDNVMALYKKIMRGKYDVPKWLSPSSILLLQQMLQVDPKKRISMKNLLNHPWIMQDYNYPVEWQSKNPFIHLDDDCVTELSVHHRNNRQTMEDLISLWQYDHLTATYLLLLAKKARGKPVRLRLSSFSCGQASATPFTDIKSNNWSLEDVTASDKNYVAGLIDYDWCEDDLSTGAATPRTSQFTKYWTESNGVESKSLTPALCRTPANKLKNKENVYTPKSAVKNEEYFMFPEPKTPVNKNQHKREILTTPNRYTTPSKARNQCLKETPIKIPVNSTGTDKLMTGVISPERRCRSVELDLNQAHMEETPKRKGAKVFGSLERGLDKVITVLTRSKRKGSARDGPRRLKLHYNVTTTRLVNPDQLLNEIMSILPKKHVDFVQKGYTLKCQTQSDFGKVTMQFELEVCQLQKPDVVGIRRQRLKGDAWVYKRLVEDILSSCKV
Sequence of Serine/threonine-protein kinase N2 (Q16513 whole entry): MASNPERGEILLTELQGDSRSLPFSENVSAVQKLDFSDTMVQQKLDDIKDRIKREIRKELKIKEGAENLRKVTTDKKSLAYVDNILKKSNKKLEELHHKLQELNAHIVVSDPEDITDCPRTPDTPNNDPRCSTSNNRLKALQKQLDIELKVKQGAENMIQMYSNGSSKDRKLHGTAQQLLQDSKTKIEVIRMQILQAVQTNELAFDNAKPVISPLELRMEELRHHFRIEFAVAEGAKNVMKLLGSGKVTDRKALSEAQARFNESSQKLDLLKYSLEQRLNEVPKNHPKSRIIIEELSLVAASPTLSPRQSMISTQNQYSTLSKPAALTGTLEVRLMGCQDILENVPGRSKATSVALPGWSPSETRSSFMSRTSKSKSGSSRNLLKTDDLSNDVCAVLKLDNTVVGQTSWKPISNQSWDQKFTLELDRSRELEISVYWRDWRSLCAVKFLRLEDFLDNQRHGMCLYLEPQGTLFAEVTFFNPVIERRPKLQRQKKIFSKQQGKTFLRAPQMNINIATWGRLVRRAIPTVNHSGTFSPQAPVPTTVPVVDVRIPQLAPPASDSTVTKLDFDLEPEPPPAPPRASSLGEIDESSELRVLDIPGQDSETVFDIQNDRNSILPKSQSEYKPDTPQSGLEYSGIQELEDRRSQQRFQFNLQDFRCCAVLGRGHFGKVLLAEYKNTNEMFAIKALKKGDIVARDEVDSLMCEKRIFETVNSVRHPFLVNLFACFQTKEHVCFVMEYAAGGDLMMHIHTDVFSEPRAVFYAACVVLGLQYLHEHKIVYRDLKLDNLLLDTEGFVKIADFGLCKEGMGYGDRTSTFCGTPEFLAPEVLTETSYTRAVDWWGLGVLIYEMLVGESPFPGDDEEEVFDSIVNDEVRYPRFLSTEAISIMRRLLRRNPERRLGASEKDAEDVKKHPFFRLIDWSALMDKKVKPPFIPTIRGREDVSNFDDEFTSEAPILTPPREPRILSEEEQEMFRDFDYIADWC
Sequence of Tyrosine-protein kinase receptor TYRO3 (Q06418 whole entry): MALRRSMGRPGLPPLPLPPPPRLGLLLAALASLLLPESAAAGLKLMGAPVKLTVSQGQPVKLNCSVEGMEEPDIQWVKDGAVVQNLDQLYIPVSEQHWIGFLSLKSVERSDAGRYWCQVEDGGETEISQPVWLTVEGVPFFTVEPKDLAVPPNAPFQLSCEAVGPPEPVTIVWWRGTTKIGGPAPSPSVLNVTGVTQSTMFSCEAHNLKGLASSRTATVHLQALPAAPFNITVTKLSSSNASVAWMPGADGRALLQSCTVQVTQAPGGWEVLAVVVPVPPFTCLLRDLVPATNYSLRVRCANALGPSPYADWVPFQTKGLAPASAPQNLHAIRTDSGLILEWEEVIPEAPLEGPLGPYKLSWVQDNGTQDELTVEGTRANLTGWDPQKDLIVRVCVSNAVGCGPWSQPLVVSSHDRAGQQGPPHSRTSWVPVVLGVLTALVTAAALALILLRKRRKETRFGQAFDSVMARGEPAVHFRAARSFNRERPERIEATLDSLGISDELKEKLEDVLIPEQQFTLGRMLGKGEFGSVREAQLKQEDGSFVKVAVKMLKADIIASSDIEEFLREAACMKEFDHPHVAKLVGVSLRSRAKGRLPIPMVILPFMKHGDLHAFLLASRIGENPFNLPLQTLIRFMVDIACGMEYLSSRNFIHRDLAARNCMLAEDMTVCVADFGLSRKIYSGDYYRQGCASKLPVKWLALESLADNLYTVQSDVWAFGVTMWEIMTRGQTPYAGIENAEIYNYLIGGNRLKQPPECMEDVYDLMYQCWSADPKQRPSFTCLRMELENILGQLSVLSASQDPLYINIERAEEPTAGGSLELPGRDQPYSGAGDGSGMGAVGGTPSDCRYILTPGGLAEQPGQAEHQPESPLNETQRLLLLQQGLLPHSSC
Sequence of Cyclin-dependent kinase 1 (P06493 whole entry): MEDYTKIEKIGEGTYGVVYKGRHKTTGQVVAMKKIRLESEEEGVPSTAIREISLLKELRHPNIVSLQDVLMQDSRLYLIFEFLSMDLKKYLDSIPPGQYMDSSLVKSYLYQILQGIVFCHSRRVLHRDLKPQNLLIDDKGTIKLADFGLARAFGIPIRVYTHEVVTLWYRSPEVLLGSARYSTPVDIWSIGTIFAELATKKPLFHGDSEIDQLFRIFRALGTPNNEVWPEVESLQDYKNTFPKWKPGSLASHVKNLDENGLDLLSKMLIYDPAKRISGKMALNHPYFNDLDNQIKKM

SMILES: Cn1cncc1C(OCc1c(-c2ccc(OC(F)(F)F)cc2)cc(C#N)c(=O)n1C)c1ccc(C#N)cc1 (stereo not given)
- Ki [1]: > 7.94 µM (inactive)
- Ki [2]: > 10 µM (inactive)
- Ki [3]: > 1.58 µM (inactive)
- Ki [4]: 0.316 µM (active)
- Ki [5]: > 2 µM (inactive)
- Ki [6]: > 7.94 µM (inactive)
- Ki [7]: > 2 µM (inactive)
- Ki [8]: > 10 µM (inactive)
- Ki [9]: 0.316 µM (active)
- Ki [10]: > 2.51 µM (inactive)
- Ki [11]: > 2 µM (inactive)
- Ki [12]: > 3.16 µM (inactive)
- Ki [13]: > 10 µM (inactive)
- Ki (SRSF protein kinase 1): > 7.94 µM (inactive)
- Ki [14]: > 7.94 µM (inactive)
- Ki [15]: > 7.94 µM (inactive)
- Ki [16]: > 6.31 µM (inactive)
- Ki [17]: > 1.58 µM (inactive)
- Ki [18]: > 7.94 µM (inactive)
- Ki [19]: > 7.94 µM (inactive)
- Ki (Aurora kinase B): 0.158 µM (active)
- Ki [20]: > 10 µM (inactive)
- Ki [21]: > 7.94 µM (inactive)
- Ki [22]: > 6.31 µM (inactive)
- Ki [23]: > 6.31 µM (inactive)
- Ki [24]: > 10 µM (inactive)
- Ki (Ephrin type-A receptor 2): > 3.16 µM (inactive)
- Ki [25]: > 10 µM (inactive)
- Ki [26]: > 10 µM (inactive)
- Ki [27]: > 10 µM (inactive)
- Ki [28]: > 7.94 µM (inactive)
- Ki [29]: > 1.58 µM (inactive)
- Ki [30]: > 6.31 µM (inactive)

SMILES: CCc1ccc(S(=O)(=O)/N=C2\C=C(NS(=O)(=O)c3ccccc3)C(=O)c3ccccc32)cc1
- CC50 (Vero): > 40 µM (active)
- AC50 [31]: 2.55 µM (active)
